Measurements: paper PMC6340889, “Structural basis of AimP signaling molecule recognition by AimR in Spbeta group of bacteriophages” (Protein & Cell, 2018)
pKd: −log10 of the molar value. Ends that are not written are not given here.

Biological target: T1, full-length AimR (wild-type) (Bacillus phage SPbeta, UniProt O64094)
T1 construct: 6xHis (C); made in house; host or cells: E. coli BL21 (DE3)
Experiment: Isothermal titration calorimetry (ITC), AimP vs wild-type AimR
Set-up: species or system Bacillus subtilis SPbeta phage
Details: wild-type full-length AimR 10–20 μM in cell, AimP 200–500 μM in syringe; 20 mM Tris-HCl (pH 8.0), 150 mM NaCl; 25°C; MicroCal iTC200; read-out: Kd (dissociation constant) for AimP binding
Procedure: DNA sequence encoding full-length AimR from Bacillus subtilis SPbeta phage was cloned into the pET-28a vector with a C-terminal 6×His-tag. The construct was introduced into E.coli BL21 (DE3) cells. The recombinant strains were cultured in LB medium at 37°C until the OD600 reached 0.8. After 16 h of induction with 0.5 mM IPTG at 16°C, the cells were harvested by centrifugation at 5, 000 rpm for 30 min at 4°C. The pelleted cells were then resuspended in the lysis buffer containing 50 mM Tris-HCl (pH 8.0) and 150 mM NaCl, and subsequently lysed by ultrasonication. The lysate was then centrifuged at 17,000 rpm for 30 min at 4°C. Protein purification was carried out following the routine procedure (Jiang et al., 2017). Briefly, the supernatant was loaded onto a Ni-NTA column (Qiagen). The target protein was eluted with 50 mM Tris-HCl (pH 8.0) containing 150 mM NaCl and 250 mM imidazole. The fractions containing purified protein were pooled, concentrated to 0.5 ml and loaded onto a Superdex200 increase column (GE Healthcare) equilibrated with buffer containing 20 mM Tris-HCl (pH 8.0) and 150 mM NaCl. All the AimR mutant proteins were purified following the same protocol.
ITC experiments were performed using a MicroCal iTC200 instrument (Malvern Instruments Ltd.). […] The resulting isotherms were recorded and fitted with Origin software (OriginLab).

T1 sequence (O64094 whole entry): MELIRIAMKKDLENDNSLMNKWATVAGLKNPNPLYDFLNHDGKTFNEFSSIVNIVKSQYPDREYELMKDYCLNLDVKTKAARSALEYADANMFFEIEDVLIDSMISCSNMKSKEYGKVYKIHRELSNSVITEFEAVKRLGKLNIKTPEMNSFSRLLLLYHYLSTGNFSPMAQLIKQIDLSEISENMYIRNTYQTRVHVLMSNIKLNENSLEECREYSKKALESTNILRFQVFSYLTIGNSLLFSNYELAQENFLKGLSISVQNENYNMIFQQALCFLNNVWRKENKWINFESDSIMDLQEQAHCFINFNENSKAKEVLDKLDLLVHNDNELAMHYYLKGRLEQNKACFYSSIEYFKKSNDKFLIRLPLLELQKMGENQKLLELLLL

GMPRGA [AimP]
pKd: 7.40
